Earlier results in patent US20070122482A1, “Method for preparing modified release pharmaceutical compositions” (priority 2003, published 2007).

Legend:
[1] = for Bioavailability (in words): Table 2
[2] = Table 2, Poorly-Soluble Drugs with Low Bioavailability

| SMILES | Bioavailability (in words) [1] | Solubility In Water [2] | Bioavailability ([1]; in vivo) |
| --- | --- | --- | --- |
| CC1CC(OC(=O)C(O)c2ccccc2)CC(C)(C)C1 (stereo not drawn) [Cyclandelate] | Low | Insoluble |  |
| CC(=O)OC[C@H]1O[C@@H]([S-])[C@H](OC(C)=O)[C@@H](OC(C)=O)[C@@H]1OC(C)=O.CCP(CC)CC.[Au+] [Auranofin] |  | Slightly soluble | Low (15-25%) |
| C[C@]12CC[C@H]3[C@@H](CCC4=CC(=O)CC[C@@]43C)[C@@H]1CC[C@@H]2O [Testosterone] | Low | Insoluble |  |
